Measured values from paper PMC8969894 (Journal of medicinal chemistry, 2021).
Read-outs that look alike come from different tables or passages of the source. Values belong to the compound of their own block, whether it stands above or below them.

How the values were obtained:
[1] = tested on: Sprague-Dawley rats; test: Locomotor activity; assay type: in vivo, rat; conditions: 10 mg/kg i.p., 30 min, p > 0.05
[2] = In vivo pharmacokinetics in Sprague-Dawley rats; conditions: male, rat, ip, 10 mg/kg
[3] = tested on: panel of ~50 GPCRs (PDSP); conditions: 10 μM; any of the receptors of the panel
[4] = Metabolic stability in rat liver microsomes; assay type: in vitro ADME
[5] = tested on: MDCK-MDR1 cells; conditions: cited from earlier work
[6] = Aqueous solubility; assay type: physicochemical; conditions: aqueous medium (not further specified)
[7] = Rat plasma protein binding; assay type: in vitro ADME
[8] = rat liver microsomes; cited from earlier work

locomotion [1]: did not significantly affect locomotion
CL/F ([2]; brain): 121 mL/min/kg
half-life ([2]; brain): 54 min
half-life ([2]; plasma): 37.8 min
inhibition at PDSP panel receptors [3]: < 50 % inhibition
Compound: O=C(NCCc1cccc(Cl)c1)Nc1ccc(Cl)cc1 [Compound 31, 3-(4-Chlorophenyl)-1-[2-(3-chlorophenyl)ethyl]urea]

%Qh (percentage of hepatic blood flow) [4]: 69.8%
Compound: O=C(NCCc1cccc(C(F)(F)F)c1)Nc1ccc(Cl)cc1 [Compound 34, 3-(4-Chlorophenyl)-1-{2-[3-(trifluoromethyl)phenyl]ethyl}urea]

solubility [6]: < 0.5 µM
fraction unbound [7]: 0.001
Compound: O=C(Nc1ccc(Cl)cc1)Nc1cccc(-c2cccc(N3CCCC3)n2)c1 [Compound 2, 1-(4-chlorophenyl)-3-{3-[6-(pyrrolidin-1-yl)pyridin-2-yl]phenyl}urea]
Efflux BA/AB [5]: 0.8
Papp (A-to-B) [5]: 2.6 ± 0 x10^−6 cm/s
Papp (B-to-A) [5]: 2.2 ± 0.1 x10^−6 cm/s
%Qh (percentage of hepatic blood flow) [8]: 72.6%

%Qh (percentage of hepatic blood flow) [4]: 72.2%
Compound: Cc1cccc(CCNC(=O)Nc2ccc(Cl)cc2)c1 [Compound 17, 3-(4-Chlorophenyl)-1-[2-(3-methylphenyl)ethyl]urea]
